Assay results taken from PMC10791743, “Selective CK1α degraders exert antiproliferative activity against a broad range of human cancer cell lines” (Nature Communications, 2024).
Values joined by “and” are separate entries in the source; they are usually repeats but may differ in a detail not shown here. Equal entries are not always repeated.

Tested on: PER117 cells
Experiment: CTG viability, PER117
Assay type: cell-based, human
Conditions: for IC50: PER117 cells, replicate values
Experimental: After establishing the potency and selectivity of our lead CK1α degraders, we investigated their effect on a panel of AML and ALL cell lines (Fig. 3a).
The primary screen was performed in 384-well format using the CellTiter Glo (CTG) luminescent cell viability assay (Promega) as previously described. 3630 compounds from the St. Jude proprietary molecular glue library were screened against 9 human cancer cell lines (HD-MB03, MB004, MB002, MHH-CALL4, MOLM-13, TF-1, HEL, OCI-AML3, AML193). Each cell line was cultured in the complete medium recommended by the vendor and seeded in Corning 8804 BC white 384-well assay plates at densities of 1000, 1000, 1500, 7500, 1250, 156, 625, 1250, 1250 cells per well for HD-MB03, MB004, MB002, MHH-CALL4, MOLM-13, TF-1, HEL, OCI-AML, AML193, respectively. After overnight incubation at 37 °C in a humidified 5% CO2 incubator, cells were treated with compounds in dose–response format using a Pintool on a Biomek FX^P Laboratory Automation Workstation (Beckman Coulter). After 72 h of incubation, cell proliferation was assessed using a CellTiter-Glo (CTG) luminescent cell viability assay (Promega) according to the manufacturer’s instructions. Luminescence signal was measured using an EnVision plate reader (PerkinElmer).
HD-MB03 cell line was obtained from Drs. Milde, Witt and Deubzer[52]. HD-MB03 and MB004 cells were grown in a neurobasal medium supplemented with glutamine, streptomycin, penicillin, B27, EGF, bFGF, and heparin as previously described. MB002 and MB004 cells were obtained from Dr Yoon-Jae Cho[54]. MB002 cells were cultured in 80% neurobasal medium supplemented with glutamine, streptomycin, penicillin, B27, and 20% conditioned media from previous passages; EGF, bFGF, and heparin were also added to the medium. MHH-CALL4, NALM-16, MHH-CALL-2 cells were obtained from the German Collection of Microorganisms and Cell Cultures GmbH (DSMZ, Germany). PER-117 cells were obtained from Telethon Kids Institute (Perth, Australia). The cells were cultured in RPMI1640 medium supplemented with 10% FBS (Hyclone), Penicillin/Streptomycin (100 units/mL), and Glutamine (100 µM) except for MHH-CALL-2 cells where 20% FBS were used. MOLM-13 cells were obtained from DSMZ (ACC 554) and cultured in RPMI-1640 media (Gibco) supplemented with 20% FBS (R&D Systems) and 100 U/ml penicillin-streptomycin (Gibco). HNT-34 cells were purchased from DSMZ (ACC 600) and cultured in RPMI-1640 media supplemented with 20% FBS and 100 U/ml penicillin-streptomycin. Kasumi-3 cells were purchased from ATCC (CRL-2725) and cultured in RPMI-1640 media supplemented with 20% FBS and 100 U/ml penicillin-streptomycin. UCSD-AML1 cells were purchased from DSMZ (ACC 691) and cultured in RPMI-1640 media supplemented with 20% FBS, 100 U/ml penicillin–streptomycin, and 10 ng/ml human GM-CSF (PeproTech). […] OCI-AML3 cells were purchased from DSMZ (ACC 690) and cultured in Alpha-MEM media (Invitrogen) supplemented with 20% FBS and 100 U/ml penicillin–streptomycin. HEL cells were obtained from Dr. Charles Mullighan and cultured in RPMI-1640 media supplemented with 10% FBS and 100 U/ml penicillin-streptomycin. AML193 cells were purchased from DSMZ (ACC 549) and cultured in IMDM supplemented with 5% FBS, 100 U/ml penicillin–streptomycin, Insulin–Transferrin–Selenium (ITS-G, Gibco), and 5 ng/ml human GM-CSF. Cell identity was confirmed by STR profiling using PowerPlex® Fusion System (Promega).

SMILES | IC50 (Homo sapiens) [nM] | IC50 | Activity against PER117 cells (CTG)
Cc1cccc(C(=O)Nc2ccc3c(c2)CN(C2CCC(=O)NC2=O)C3=O)c1 (centres unmarked) [SJ0040] | 5 | 4.7 nM and 5.3 nM | 
O=C1CCC(N2Cc3cc(Nc4noc5ccccc45)ccc3C2=O)C(=O)N1 (centres unmarked) [SJ3149] | 0.8 | 1.1 nM | sub-nanomolar activity
